Molecular target: T1, hFXR (Homo sapiens, UniProt Q96RI1)
T1 construct: expressed in transfected cells; host or cells: CV-1 cells
T1 sequence (Q96RI1 1-486): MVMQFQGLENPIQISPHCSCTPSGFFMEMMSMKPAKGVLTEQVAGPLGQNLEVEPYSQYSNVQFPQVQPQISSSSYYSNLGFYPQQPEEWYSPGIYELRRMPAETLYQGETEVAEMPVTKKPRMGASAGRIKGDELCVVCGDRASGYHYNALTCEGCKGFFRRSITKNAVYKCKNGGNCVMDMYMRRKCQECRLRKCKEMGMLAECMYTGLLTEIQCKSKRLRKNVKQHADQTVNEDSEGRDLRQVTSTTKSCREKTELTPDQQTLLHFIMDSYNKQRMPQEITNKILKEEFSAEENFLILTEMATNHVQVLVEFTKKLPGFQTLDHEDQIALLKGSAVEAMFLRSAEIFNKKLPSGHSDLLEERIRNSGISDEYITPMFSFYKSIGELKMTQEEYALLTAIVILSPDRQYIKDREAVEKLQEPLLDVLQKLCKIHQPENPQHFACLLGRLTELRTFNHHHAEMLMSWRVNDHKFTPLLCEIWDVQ
T1 sequence (P19793 1-462 partner): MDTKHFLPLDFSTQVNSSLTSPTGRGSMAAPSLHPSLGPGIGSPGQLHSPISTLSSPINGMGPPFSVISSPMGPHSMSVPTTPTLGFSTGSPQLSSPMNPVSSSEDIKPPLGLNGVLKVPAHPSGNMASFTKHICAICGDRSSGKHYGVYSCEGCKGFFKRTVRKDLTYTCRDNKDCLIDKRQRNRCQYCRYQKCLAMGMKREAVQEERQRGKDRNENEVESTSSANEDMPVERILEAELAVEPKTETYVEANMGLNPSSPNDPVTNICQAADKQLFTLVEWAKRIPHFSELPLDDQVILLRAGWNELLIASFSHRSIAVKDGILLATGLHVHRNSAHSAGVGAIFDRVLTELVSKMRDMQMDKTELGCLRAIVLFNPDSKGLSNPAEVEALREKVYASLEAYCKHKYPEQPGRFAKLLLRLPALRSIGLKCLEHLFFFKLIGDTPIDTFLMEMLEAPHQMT
Experiment: In Vitro FXR Assay (TK): TK-ECRE-luc reporter in transfected CV-1 cells
Type: cell-based
Settings: 18 hrs incubation, luminescence
Method in brief: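 Transactivation is scored as luminescence in CV-1 cell lysates. The cells, co-transfected with hFXR/hRXR and a TK-ECRE-luc reporter, are exposed to DMSO-diluted compounds for 18 h.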

EC50 [nM]	SMILES
≤ 50	COc1ccc([C@H]2CC[C@H](CN(c3cc(-c4cnn(C(C)C)c4)ccn3)C(=O)[C@H]3CC[C@H](OC(=O)NCC(C)(C)CO)CC3)CC2)nc1C [Compound 1.02, trans-4-((4-(1-Isopropyl-1H-pyrazol-4-yl)pyridin-2-yl) ((trans-4-(5-methoxy-6-methylpyridin-2-yl)cyclohexyl)methyl)carbamoyl) cyclohexyl (3-hydroxy-2,2-dimethylpropyl)carbamate]
≤ 50	COc1ccc(C23CCC(CN(c4cc(-n5cc(C(C)C)cn5)ccn4)C(=O)[C@H]4CC[C@H](OC(=O)N5CC(O)C5)CC4)(CC2)CC3)cc1C [Compound 23.14, 4-((4-(4-Isopropyl-1H-pyrazol-1-yl)pyridin-2-yl)((4-(4-meth-oxy-3-methylphenyl)bi-cyclo[2.2.2]octan-1-yl)meth-yl)carbamoyl)cyclohexyl trans-3-hydroxyazetidine-1-carboxylate]
≤ 50	COc1c(C)cc(C23CCC(CN(c4cc(-c5cnn(C(C)C)c5)ccn4)C(=O)[C@H]4CC[C@H](OC(=O)N5CC(O)C5)CC4)(CC2)CC3)cc1F [Compound 26.05, 4-(((4-(3-Fluoro-4-methoxy-5-methylphenyl)bicyclo[2.2.2]octan-1-yl)methyl)(4-(1-isopropyl-1H-pyrazol-4-yl)pyridin-2-yl)carbamoyl)cyclohexyl trans-3-hydroxyazetidine-1-carboxylate]
≤ 50	COc1ccc(C23CCC(CN(c4cc(-c5coc(C(C)C)n5)ccn4)C(=O)[C@H]4CC[C@H](OC(=O)N5CC(S(C)(=O)=O)C5)CC4)(CC2)CC3)cc1C [Compound 23.03, 4-((4-(2-Isopropyloxazol-4-yl)pyridin-2-yl)((4-(4-methoxy-3-methylphenyl)bicyclo[2.2.2]octan-1-yl)methyl)carbamoyl)(trans-cyclohexyl) 3-(methylsulfonyl)azetidine-1-carboxylate]
≤ 50	COc1ccc(C23CCC(CN(c4cc(-c5cnc(C(C)C)s5)ccn4)C(=O)[C@H]4CC[C@H](OC(=O)N5CC(S(C)(=O)=O)C5)CC4)(CC2)CC3)cc1C [Compound 4.34, 4-((4-(2-Isopropylthiazol-5-yl)pyridin-2-yl)((4-(4-methoxy-3-methylphenyl)bicyclo[2.2.2]octan-1-yl)methyl)carbamoyl)(trans-cyclohexyl) 3-(methylsulfonyl)azetidine-1-carboxylate]
50 to 1000	CCC(=O)NC[C@H]1CC[C@H](C(=O)N(C[C@H]2CC[C@H](c3ccc(OC)c(C)c3)CC2)c2cccc(-c3cnn(C(C)C)c3)c2)CC1 [Compound 12.01, (trans)-N-(3-(1-Isopropyl-1H-pyrazol-4-yl)phenyl)-N-(((trans)-4-(4-methoxy-3-methylphenyl)cyclohexyl)methyl)-4-(propionamidomethyl)cyclohexane-carboxamide]
≤ 50	COc1ccc(C23CCC(CN(c4ccc(F)c(-c5cnn(C(C)C)c5)c4F)C(=O)[C@H]4CC[C@H](OC(=O)N5CC(O)C5)CC4)(CC2)CC3)cc1C [Compound 25.15, 4-((2,4-Difluoro-3-(1-isopropyl-1H-pyrazol-4-yl)phenyl)((4-(4-methoxy-3-methylphenyl)bicyclo[2.2.2]octan-1-yl)methyl)carbamoyl)cyclohexyl trans-3-hydroxyazetidine-1-carboxylate]
≤ 50	COc1ccc([C@H]2CC[C@H](CN(c3cccc(-c4cnn(C5CC5)c4)c3)C(=O)[C@H]3CC[C@H](C(C)O)CC3)CC2)cc1C (stereo partly drawn) [Compound 21, trans-N-(3-(1-Cyclopropyl-1H-pyrazol-4-yl)phenyl)-4-(1-hydroxyethyl)-N-((trans-4-(4-methoxy-3-methylphenyl)cyclohexyl)methyl)cyclohexanecarboxamide]
≤ 50	COc1ccc(C23CCC(CN(c4ccc(F)c(-c5cnn(C(C)C)c5)c4)C(=O)[C@H]4CC[C@H](OC(=O)N5CC(O)C5)CC4)(CC2)CC3)cc1C [Compound 26.03, 4-((4-Fluoro-3-(1-isopropyl-1H-pyrazol-4-yl)phenyl)((4-(4-methoxy-3-methylphenyl)bicyclo[2.2.2]octan-1-yl)methyl)carbamoyl)(trans-cyclohexyl) 3-hydroxyazetidine-1-carboxylate]
50 to 1000	CC(C)n1cc(-c2ccnc(N(CC34CCC(C5CCC(C)(C)CC5)(CC3)CC4)C(=O)[C@H]3CC[C@H](OC(=O)N4CC(O)C4)CC3)c2)cn1 [Compound 26.19, 4-(((4-(4,4-Dimethylcyclohexyl)bicyclo[2.2.2]octan-1-yl)methyl)(4-(1-isopropyl-1H-pyrazol-4-yl)pyridin-2-yl)carbamoyl)cyclohexyl trans-3-hydroxyazetidine-1-carboxylate]
≤ 50	COc1ccc(C23CCC(CN(c4cc(-c5cnn(C(C)C)c5)ccn4)C(=O)[C@H]4CC[C@H](NC(=O)OC5COC5)CC4)(CC2)CC3)cc1C [Compound 7.02, (trans)-Oxetan-3-yl (4-((4-(1-isopropyl-1H-pyrazol-4-yl)pyridin-2-yl)((4-(4-methoxy-3-methylphenyl)bicyclo[2.2.2]octan-1-yl)methyl)carbamoyl)cyclohexyl) carbamate]
≤ 50	CCC(=O)N[C@H]1CC[C@H](C(=O)N(C[C@H]2CC[C@H](c3ccc(OC)c(C)c3)CC2)c2cccc(-c3cnn(C(C)C)c3)c2)CC1 [Compound 10, trans-N-(3-(1-Isopropyl-1H-pyrazol-4-yl)phenyl)-N-((trans-4-(4-methoxy-3-methylphenyl)cyclohexyl)methyl)-4-propionamidocyclohexanecarboxamide]
≤ 50	COc1ccc(C23CCC(CN(c4ncc(F)c(-c5cnn(C(C)C)c5)c4F)C(=O)[C@H]4CC[C@H](OC(=O)N5CC(O)C5)CC4)(CC2)CC3)cc1C [Compound 25.14, 4-((3,5-Difluoro-4-(1-isopropyl-1H-pyrazol-4-yl)pyridin-2-yl)((4-(4-methoxy-3-methylphenyl)bicyclo[2.2.2]octan-1-yl)methyl)carbamoyl)(trans-cyclohexyl) 3-hydroxyazetidine-1-carboxylate]
≤ 50	COc1ccc([C@H]2CC[C@H](CN(c3cc(-n4cnc(C5CC5)n4)ccn3)C(=O)[C@H]3CC[C@H](OC(=O)N4CC(O)C4)CC3)CC2)cc1C [Compound 2.39, trans-4-((4-(3-Cyclopropyl-1H-1,2,4-triazol-1-yl)pyridin-2-yl)((trans-4-(4-methoxy-3-methylphenyl)cyclohexyl)methyl)carbamoyl)cyclohexyl 3-hydroxyazetidine-1-carboxylate]
≤ 50	COc1ccc([C@H]2CC[C@H](CN(c3cccc(-c4cnn(C(C)C)c4)c3)C(=O)[C@H]3CC[C@H](OC(=O)NCC(C)(F)F)CC3)CC2)cc1C [Compound 5.06, trans-4-((3-(1-Isopropyl-1H-pyrazol-4-yl)phenyl)(((trans)-4-(4-methoxy-3-methylphenyl)cyclohexyl)methyl)carbamoyl)cyclohexyl (2,2-difluoropropyl)carbamate]
≤ 50	COc1ccc(C23CCC(CN(c4cccc(-c5cnn(C(C)C)c5)n4)C(=O)[C@H]4CC[C@H](OC(=O)N5CC(O)C5)CC4)(CC2)CC3)cc1C [Compound 23.25, 4-((6-(1-Isopropyl-1H-pyrazol-4-yl)pyridin-2-yl)((4-(4-methoxy-3-methylphenyl)bicyclo[2.2.2]octan-1-yl)methyl)carba-moyl)cyclohexyl trans-3-hydroxy-azetidine-1-carboxylate]

From US20220056019A1, “FARNESOID X RECEPTOR AGONISTS AND USES THEREOF” (Metacrine, Inc., priority 2018, published 2022)
